Assay: RP, Thermo Scientific Acclaim RSLC 120 C18, 100 × 2.1 mm, 2.2 µm, 30 °C, 0.2 mL/min, estimated dead time 1.1 min; A: 90% water + 10% methanol + 0.01% formic acid + 5 mM ammonium formate, pH 3.61; B: methanol + 0.01% formic acid + 5 mM ammonium formate, pH 3.61; gradient (min/%B) 0/1 1/1 2/39 13/99.9 15/99.9 15.1/1 20.1/1
Details: stereoisomer not certain

In the case of `COc1ccc2c3c1OC1C(OC(C)=O)=CCC4C(C2)N(C)CCC314` (stereo unspecified) [Thebacon], the LC retention time is reported as 4.47 min.

For `CC(O)(C(N)=O)c1ccccc1` (stereo unspecified) [M-144], the LC retention time was 12.9 min.

`CN(C)CCc1c[nH]c2cccc(O)c12` [Psilocin] showed an LC retention time of 3.29 min.

With `Cc1cc(C)nc(NC(=O)NS(=O)(=O)c2ccccc2C(=O)OC2COC2)n1` [Oxasulfuron] the LC retention time was 6.52 min.

Compound `Cc1cccc2n[nH]nc12` [Benzotriazole -4-Me] has an LC retention time of 5.83 min.

Compound `CCCC1OC2CC3C4CCC5=CC(=O)C=CC5(C)C4C(O)CC3(C)C2(C(=O)CO)O1` (stereo unspecified) [Budesonide] has an LC retention time of 10.3 min.

For `CCS(=O)(=O)Cc1ccccc1OC(=O)NC` [Ethiofencarb-sulfone], the LC retention time was 4.63 min.

`COCc1cnc(C2=NC(C)(C(C)C)C(=O)N2)c(C(=O)O)c1` (stereo unspecified) [Imazamox] gave an LC retention time of 4.63 min.

With `CC(CN(C)C)CN1c2ccccc2S(=O)(=O)c2ccccc21` (stereo unspecified) [Oxomemazine] the LC retention time was 5.34 min.

Compound `CCc1cc2c(s1)-n1c(C)nnc1CN=C2c1ccccc1` [Deschloroetizolam] has an LC retention time of 8.43 min.

In the case of `CNC(=O)Oc1ccccc1OC(C)C` [Propoxur], the LC retention time is reported as 6.94 min.

`CCC(C(=O)c1ccc2c(c1)OCO2)N(C)C` (stereo unspecified) [Dibutylone] showed an LC retention time of 4.38 min.

Work on `CC12CCC3c4cc(O)c(O)cc4CCC3C1CCC2=O` (stereo unspecified) yielded an LC retention time of 8.56 min.

`COc1cc(OC)nc(NC(=O)NS(=O)(=O)c2ncccc2C(=O)N(C)C)n1` [Nicosulfuron] showed an LC retention time of 6.62 min.

With `NC1CC1c1ccccc1` (stereo unspecified) [Tranylcypromine] the LC retention time was 4.27 min.

With `COc1ccc(CCN2CCC(Nc3nc4ccccc4n3Cc3ccc(F)cc3)CC2)cc1` [Astemizole] the LC retention time was 8.03 min.

With `O=C1C(Cl)C(CCl)CN1c1cccc(C(F)(F)F)c1` (stereo unspecified) [Flurochloridone] the LC retention time was 9.84 min.

In the case of `CCOC(=O)C(C)Oc1ccc(Oc2cnc3cc(Cl)ccc3n2)cc1` (stereo unspecified) [Quizalofop-ethyl], the LC retention time is reported as 12.1 min.

`O=C(Nc1ccc(F)cc1F)c1cccnc1Oc1cccc(C(F)(F)F)c1` [Diflufenican] gave an LC retention time of 11.7 min.

Compound `CC(C)N(CCc1c[nH]c2ccccc12)C(C)C` [DiPT] has an LC retention time of 4.87 min.

With `NCC1(CC(=O)O)CCCCC1` [Gabapentin] the LC retention time was 3.78 min.

Work on `CC(C)(c1ccc(OCC(O)CCl)cc1)c1ccc(OCC2CO2)cc1` (stereo unspecified) [Bisphenol<U+00A0>A (3-chloro-2-hydroxypropyl) glycidyl ether] yielded an LC retention time of 11.1 min.

`CCOC(=O)C(Cl)=Cc1cc(N2C(=O)C3=C(CCCC3)C2=O)ccc1Cl` [Cinidon-ethyl] showed an LC retention time of 12.4 min.

In the case of `NC(=O)N1c2ccccc2CC(=O)c2ccccc21` [Oxcarbazepine], the LC retention time is reported as 6.46 min.

In the case of `CN1C(=O)C(O)CC1c1cccnc1` (stereo unspecified) [Cotinine-Hydroxy], the LC retention time is reported as 3.13 min.

In the case of `CCOC(=O)N1CCC(=C2c3ccc(Cl)cc3CCc3cccnc32)CC1` [Loratadine], the LC retention time is reported as 11.5 min.

Compound `CN(C)CCC=C1c2ccccc2COc2ccccc21` [Doxepin] has an LC retention time of 7.01 min.

Work on `CCCc1nn(C)c2c(=S)nc(-c3cc(S(=O)(=O)N4CCN(C)CC4)ccc3OCC)[nH]c12` [Sildenafil-Thio] yielded an LC retention time of 10.6 min.

Work on `COc1cc(SC(C)C)c(OC)cc1CCN` [2C-T-4] yielded an LC retention time of 6.69 min.

Work on `CNc1c(C)n(C)n(-c2ccccc2)c1=O` [Methylaminophenazone (4-)] yielded an LC retention time of 4.74 min.

With `CC12CCC(=O)C=C1CCC1C2C(O)CC2(C=O)C(C(=O)CO)CCC12` (stereo unspecified) [Aldosterone] the LC retention time was 7.78 min.

`CCc1cc2c(s1)-n1c(C)nnc1CN=C2c1ccccc1Cl` [Etizolam] showed an LC retention time of 8.31 min.

In the case of `Cc1ccc(NC(=O)NC(C)(C)c2ccccc2)cc1` [Daimuron (Dymron)], the LC retention time is reported as 9.68 min.

Work on `CCC(=O)OC(Cc1ccccc1)(c1ccccc1)C(C)CNC` (stereo unspecified) [Nordextropropoxyphene] yielded an LC retention time of 7.84 min.

`CC(C)(C)c1ccc(CCOc2ncnc3ccccc23)cc1` [Fenazaquin] gave an LC retention time of 13.7 min.

In the case of `Cc1noc(NS(=O)(=O)c2ccc(N)cc2)c1C` [Sulfisoxazole], the LC retention time is reported as 4.71 min.

Work on `CN1C(=O)CN=C(c2ccccc2F)c2cc([N+](=O)[O-])ccc21` [Flunitrazepam] yielded an LC retention time of 7.83 min.

With `Cc1cc(Cl)ccc1OC(C)C(=O)O` (stereo unspecified) [Mecoprop] the LC retention time was 8.27 min.

In the case of `CC1c2cccc(O)c2C(O)=C2C(=O)C3(O)C(O)=C(C(N)=O)C(=O)C(N(C)C)C3C(O)C21` (stereo unspecified) [Doxycycline], the LC retention time is reported as 6.2 min.

`CC(=NNC(=O)Nc1cc(F)cc(F)c1)c1ncccc1C(=O)O` [Diflufenzopyr] gave an LC retention time of 6.22 min.

`O=C1CN=C(c2ccccc2F)c2cc(Cl)ccc2N1` [Flurazepam-Desalkyl] showed an LC retention time of 8.74 min.

Compound `Nc1ccc(S(=O)(=O)Nc2ccccn2)cc1` [Sulfapyridine] has an LC retention time of 3.8 min.

In the case of `CC(C)NC(=O)c1ccccc1O` [Salicylamide-N-Isopropyl], the LC retention time is reported as 7.14 min.

For `CCOC(=O)C1(c2ccccc2)CCC=CC1N(C)C` (stereo unspecified) [Tilidine], the LC retention time was 5.1 min.

In the case of `O=C1CN=C(c2ccccc2Cl)c2cc(Cl)ccc2N1` [Delorazepam], the LC retention time is reported as 8.81 min.

For `O=CNC(N1CCN(C(NC=O)C(Cl)(Cl)Cl)CC1)C(Cl)(Cl)Cl` (stereo unspecified) [Triforine], the LC retention time was 8.65 min.

Compound `CCCCCCCCCCCCOCCOCCOCCOCCO` [Tetraethylene glycol monododecyl ether] has an LC retention time of 13.5 min.

Compound `O=C1CN=C(c2ccccc2F)c2cc(Cl)ccc2N1CCO` [Flurazepam-2-OH-Ethyl] has an LC retention time of 8.19 min.

Compound `CC12CCC3C4CCC(=O)C=C4CCC3C1CCC2O` (stereo unspecified) [Nandrolone] has an LC retention time of 9.37 min.

For `CC(=O)Nc1c(I)c(NC(C)=O)c(I)c(C(=O)O)c1I` [Diatrizoate (Amidotrizoate acid)], the LC retention time was 2.79 min.

For `c1ccc(C2CN3CCSC3=N2)cc1` (stereo unspecified) [Levamisol], the LC retention time was 3.68 min.

In the case of `COc1nc(C)nc(N)n1` [2-Methyl-4-amino-6-methoxy-s-triazine], the LC retention time is reported as 3.71 min.

`CNCCCC1c2ccccc2C=Cc2ccccc21` [Protriptyline] showed an LC retention time of 7.99 min.

`CC(Cn1cnc2c(N)ncnc21)OCP(=O)(O)O` (stereo unspecified) [Tenofovir] showed an LC retention time of 2.69 min.

Compound `CCN(CC)CCCC(C)Nc1ccnc2cc(Cl)ccc12` (stereo unspecified) [Chloroquine] has an LC retention time of 4.16 min.

With `CC1(C)SC2C(NC(=O)C(N)c3ccccc3)C(=O)N2C1C(=O)O` (stereo unspecified) [Ampicillin] the LC retention time was 4.21 min.

`COC(=O)CSP(=S)(OC)OC` gave an LC retention time of 7.16 min.

With `CCCCCn1cc(C(=O)Nc2cccc3ccccc23)c2ccccc21` [NNEI] the LC retention time was 11.7 min.

In the case of `CC(=O)Nc1cc(NS(=O)(=O)C(F)(F)F)c(C)cc1C` [Mefluidide], the LC retention time is reported as 6.85 min.

Work on `CC(Cc1ccccc1)NCCCCl` (stereo unspecified) [Mefenorex] yielded an LC retention time of 5.31 min.

In the case of `CCCOCC(=Nc1ccc(Cl)cc1C(F)(F)F)n1ccnc1` [Triflumizole], the LC retention time is reported as 11.8 min.

`CC(=O)OC1(C(C)=O)CCC2C3C=C(C)C4=CC(=O)CCC4(C)C3CCC21C` (stereo unspecified) [Megestrol-17-acetate] showed an LC retention time of 10.9 min.

Work on `N#CC(CCN1CCC(C(N)=O)(N2CCCCC2)CC1)(c1ccccc1)c1ccccc1` [Piritramide] yielded an LC retention time of 8.19 min.

In the case of `CN1CCCCC1Cn1cc(C(=O)C23CC4CC(CC(C4)C2)C3)c2ccccc21` (stereo unspecified) [AM-1248], the LC retention time is reported as 9.94 min.

`CC1=C(CC(=O)O)c2cc(F)ccc2C1=Cc1ccc(S(C)=O)cc1` (stereo unspecified) [Sulindac] showed an LC retention time of 8.24 min.

Compound `CC12CCC3=C4CCC(=O)C=C4CCC3C1CCC2(O)CC#N` (stereo unspecified) [Dienogest] has an LC retention time of 8.09 min.

In the case of `CCCCNc1cc(C(=O)O)cc(S(N)(=O)=O)c1Oc1ccccc1` [Bumetanide], the LC retention time is reported as 7.83 min.

In the case of `CN(C)CCOC(C)(c1ccccc1)c1ccccn1` (stereo unspecified) [Doxylamine], the LC retention time is reported as 5.18 min.

Compound `CN1CCN(C(=O)OC2c3nccnc3C(=O)N2c2ccc(Cl)cn2)CC1` (stereo unspecified) [Zopiclone] has an LC retention time of 4.89 min.

In the case of `O=C1NCCN1CCN1CCC(c2cn(-c3ccc(F)cc3)c3ccc(Cl)cc23)CC1` [Sertindole], the LC retention time is reported as 9.26 min.

`COc1ccc(C2Sc3ccccc3N(CCN(C)C)C(=O)C2OC(C)=O)cc1` (stereo unspecified) [Diltiazem] showed an LC retention time of 7.18 min.

Work on `C=CCC(C(=O)NC(N)=O)C(C)C` (stereo unspecified) [Apronalide] yielded an LC retention time of 6.94 min.

With `CC(C)c1cc(Oc2ccccc2)cc(C(C)C)c1NC(=S)NC(C)(C)C` [Diafenthiuron] the LC retention time was 12.9 min.

`CCCCCn1cc(C(=O)c2cccc3ccccc23)cc1-c1ccccc1C` [JWH-370] gave an LC retention time of 13.4 min.

`Nc1ccc(S(=O)(=O)NC(=O)c2ccccc2)cc1` [Sulfabenzamide] gave an LC retention time of 4.72 min.

For `COc1cccc(C(=O)NN(C(=O)c2cc(C)cc(C)c2)C(C)(C)C)c1C` [Methoxyfenozide], the LC retention time was 9.56 min.

Work on `CC1=NNC(=O)N(N=Cc2cccnc2)C1` [Pymetrozine] yielded an LC retention time of 4.01 min.

`CCOC(=O)c1ccc(N)cc1` [Benzocaine] gave an LC retention time of 6.27 min.

`CN1CCc2cccc3c2C1Cc1ccc(O)c(O)c1-3` (stereo unspecified) [Apomorphine] showed an LC retention time of 4.28 min.

Work on `COc1ccc2[nH]cc(CC(=O)O)c2c1` [MeOT (5-)] yielded an LC retention time of 4.01 min.

For `CNCC(c1ccc(O)cc1)C1(O)CCCCC1` [Venlafaxine-D L-N O-Didesmethyl], the LC retention time was 4.91 min.

`CCOCCOC(=O)C(C)Oc1ccc(Oc2ncc(C(F)(F)F)cc2Cl)cc1` (stereo unspecified) [Haloxyfop ethoxyethyl ester] gave an LC retention time of 12.2 min.

Work on `Oc1ccc2c3c1OC1C(O)CCC4(O)C(C2)N(CC2CCC2)CCC314` (stereo unspecified) [Nalbuphine] yielded an LC retention time of 4.17 min.

Work on `CN1CCC(=C2c3ccccc3CCc3sccc32)CC1` [Pizotifen] yielded an LC retention time of 7.86 min.

In the case of `CC(=O)CCCCn1c(=O)c2c(ncn2C)n(C)c1=O` [Pentoxifylline], the LC retention time is reported as 5.23 min.

`O=[N+]([O-])c1cc(C(F)(F)F)c(Cl)c([N+](=O)[O-])c1Nc1ncc(C(F)(F)F)cc1Cl` [Fluazinam] showed an LC retention time of 12.3 min.
